Active and inactive are the calls of the source. The calls are words filed in the database; no cut-off is given here.
Key:
SK-OV-3 [1] = assay: Induction of autophagy in human SK-OV-3 cells assessed as reduction in LAMP1 labeled lysosomes at 2 umol/L incubated for 24 hrs by immunofluorescence analysis; assay type: functional, cell-based; settings: dose 2.0 µmol/L
SK-OV-3 [2] = assay: Induction of apoptosis in human SK-OV-3 cells assessed as necrotic cells at 2 uM incubated for 24 hrs by Annexin V and PI staining based flow cytometry analysis (reference value: 0.15 %); assay type: functional
ES-2 = assay: Antiproliferative activity against human ES2 cells assessed as reduction in cell viability incubated for 24 hrs by CCK8 assay; assay type: functional, cell-based; settings: ES-2, 24 h
[3] = molecular target: Bromodomain testis-specific protein (Homo sapiens, UniProt Q58F21); assay: Inhibition of BRDT bromodomain 1 (unknown origin) by Alphascreen based method
SK-OV-3 [4] = assay: Induction of autophagy in human SK-OV-3 cells assessed as GFP-LC3 aggregation incubated for 24 hrs by transmission electron microscopy analysis; assay type: functional, cell-based
SK-OV-3 [5] = assay: Induction of apoptosis in human SK-OV-3 cells assessed as upregulation of cytochrome-C protein expression at 1 to 2 uM incubated for 24 hrs by Western blotting analysis; assay type: functional, cell-based; settings: dose 1-2 µM
[6] = molecular target: T1, Bromodomain-containing protein 2 (Homo sapiens, UniProt P25440); assay: Inhibition of BRD2 bromodomain 1 (unknown origin) by Alphascreen based method
T1 sequence (P25440 whole entry): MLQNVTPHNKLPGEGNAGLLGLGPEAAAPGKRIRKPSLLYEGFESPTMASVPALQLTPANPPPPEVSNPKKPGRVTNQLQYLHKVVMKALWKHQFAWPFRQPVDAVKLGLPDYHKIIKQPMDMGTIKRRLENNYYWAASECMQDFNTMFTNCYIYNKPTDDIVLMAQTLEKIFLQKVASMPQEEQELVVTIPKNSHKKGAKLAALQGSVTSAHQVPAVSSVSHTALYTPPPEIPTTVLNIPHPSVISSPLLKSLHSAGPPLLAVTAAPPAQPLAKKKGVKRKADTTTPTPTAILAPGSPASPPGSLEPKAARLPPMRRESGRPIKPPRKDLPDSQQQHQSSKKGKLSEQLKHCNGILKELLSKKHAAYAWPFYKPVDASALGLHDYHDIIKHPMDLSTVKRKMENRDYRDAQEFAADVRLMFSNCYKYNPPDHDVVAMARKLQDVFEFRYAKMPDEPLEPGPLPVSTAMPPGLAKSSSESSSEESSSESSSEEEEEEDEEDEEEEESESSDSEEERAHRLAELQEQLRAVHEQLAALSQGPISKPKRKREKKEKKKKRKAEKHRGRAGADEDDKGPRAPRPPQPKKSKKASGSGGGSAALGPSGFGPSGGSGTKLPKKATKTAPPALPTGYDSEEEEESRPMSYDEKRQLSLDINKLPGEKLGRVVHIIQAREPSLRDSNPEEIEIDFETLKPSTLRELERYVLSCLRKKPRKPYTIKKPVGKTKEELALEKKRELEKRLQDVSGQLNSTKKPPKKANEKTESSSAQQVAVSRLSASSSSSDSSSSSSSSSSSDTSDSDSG

[7] = molecular target: T1, Bromodomain-containing protein 2; assay: Binding affinity to BRD2 BD1 (unknown origin) by thermal denaturation assay
SK-OV-3 [8] = assay: Induction of apoptosis in human SK-OV-3 cells assessed as late apoptotic cells at 2 uM incubated for 24 hrs by Annexin V and PI staining based flow cytometry analysis (reference value: 0 %); assay type: functional
SK-OV-3 [9] = assay: Induction of apoptosis in human SK-OV-3 cells assessed as upregulation of Beclin1 protein expression at 1 to 2 uM incubated for 24 hrs by Western blotting analysis; assay type: functional, cell-based; settings: dose 1-2 µM
SK-OV-3 [10] = assay: Induction of autophagy in human SK-OV-3 cells assessed as reduction in GFP-LC3 labeled lysosomes at 2 umol/L incubated for 24 hrs by immunofluorescence analysis; assay type: functional, cell-based; settings: dose 2.0 µmol/L
SK-OV-3 [11] = assay: Induction of apoptosis in human SK-OV-3 cells assessed as early apoptotic cells at 1 uM incubated for 24 hrs by Annexin V and PI staining based flow cytometry analysis (reference value: 0.020 %); assay type: functional
SK-OV-3 [12] = assay: Induction of apoptosis in human SK-OV-3 cells assessed as early apoptotic cells at 2 uM incubated for 24 hrs by Annexin V and PI staining based flow cytometry analysis (reference value: 0.020 %); assay type: functional
SK-OV-3 [13] = assay: Antitumor activity against human SK-OV-3 cells xenografted in Balb/c nude mouse assessed as tumor growth inhibition at 30 mg/kg, ip administered for 19 days; assay type: functional, organism-based; settings: time 19.0 day
A2780 = assay: Antiproliferative activity against human A2780 cells assessed as reduction in cell viability incubated for 24 hrs by CCK8 assay; assay type: functional, cell-based; settings: A2780, 24 h
SK-OV-3 [14] = assay: Induction of apoptosis in human SK-OV-3 cells assessed as necrotic cells at 1 uM incubated for 24 hrs by Annexin V and PI staining based flow cytometry analysis (reference value: 0.15 %); assay type: functional
[15] = molecular target: T2, Bromodomain-containing protein 4 (Homo sapiens, UniProt O60885); assay: Binding affinity to BRD4 BD1 (unknown origin) by thermal denaturation assay
[16] = molecular target: T3, Bromodomain-containing protein 3 (Homo sapiens, UniProt Q15059); assay: Inhibition of BRD3 bromodomain 2 (unknown origin) by Alphascreen based method
T3 sequence (Q15059 whole entry): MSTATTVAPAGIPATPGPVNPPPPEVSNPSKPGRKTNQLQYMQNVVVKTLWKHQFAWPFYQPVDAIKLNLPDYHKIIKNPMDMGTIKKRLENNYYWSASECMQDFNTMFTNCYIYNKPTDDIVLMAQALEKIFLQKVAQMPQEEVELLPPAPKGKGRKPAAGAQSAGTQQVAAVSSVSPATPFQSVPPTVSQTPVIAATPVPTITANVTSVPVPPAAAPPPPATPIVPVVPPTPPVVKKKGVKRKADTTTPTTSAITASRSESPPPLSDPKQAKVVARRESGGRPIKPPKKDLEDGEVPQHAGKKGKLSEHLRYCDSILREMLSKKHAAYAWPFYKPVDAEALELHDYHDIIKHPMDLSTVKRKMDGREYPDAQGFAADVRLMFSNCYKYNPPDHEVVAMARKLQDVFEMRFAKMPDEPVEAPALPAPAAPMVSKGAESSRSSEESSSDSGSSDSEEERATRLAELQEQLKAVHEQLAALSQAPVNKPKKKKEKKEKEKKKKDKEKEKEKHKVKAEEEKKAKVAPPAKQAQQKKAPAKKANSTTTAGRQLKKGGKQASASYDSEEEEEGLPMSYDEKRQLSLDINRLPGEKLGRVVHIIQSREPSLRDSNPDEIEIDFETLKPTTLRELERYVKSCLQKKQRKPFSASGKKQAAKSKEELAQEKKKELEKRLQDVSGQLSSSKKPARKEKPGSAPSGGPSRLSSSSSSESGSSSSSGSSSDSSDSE

[17] = molecular target: T2, Bromodomain-containing protein 4; assay: Inhibition of BRD4 in human SK-OV-3 cells assessed as reduction in BRD4 protein expression by Western blot analysis; assay type: cell-based
[18] = molecular target: T1, Bromodomain-containing protein 2; assay: Binding affinity to BRD2 BD2 (unknown origin) by thermal denaturation assay
Mus musculus = assay: In vivo inhibition of BRD4 in BALB/c nude mouse xenografted with human SK-OV-3 cells assessed as reduction in c-Myc expression at 30 mg/kg, ip administered for 19 days by immunohistochemical analysis; assay type: functional, organism-based; settings: time 19.0 day
[19] = molecular target: T3, Bromodomain-containing protein 3; assay: Inhibition of BRD3 bromodomain 1 (unknown origin) by Alphascreen based method
[20] = molecular target: T2, Bromodomain-containing protein 4; assay: Inhibition of BRD4 in human SK-OV-3 cells assessed as reduction in c-Myc protein expression by Western blot analysis; assay type: cell-based
[21] = molecular target: T2, Bromodomain-containing protein 4; assay: Inhibition of BRD4 bromodomain 1 (unknown origin) by Alphascreen based method
SW626 = assay: Antiproliferative activity against human SW626 cells assessed as reduction in cell viability incubated for 24 hrs by CCK8 assay; assay type: functional, cell-based; settings: SW626, 24 h
SK-OV-3 [22] = assay: Antiproliferative activity against human SK-OV-3 cells assessed as reduction in cell viability incubated for 24 hrs by CCK8 assay; assay type: functional, cell-based; settings: SK-OV-3, 24 h
SK-OV-3 [23] = assay: Induction of apoptosis in human SK-OV-3 cells assessed as upregulation of p62/SQSTM1 protein expression at 1 to 2 uM incubated for 24 hrs by Western blotting analysis; assay type: functional, cell-based; settings: dose 1-2 µM
SK-OV-3 [24] = assay: Induction of autophagy in human SK-OV-3 cells assessed as appearance of autophagic vacuoles incubated for 24 hrs by confocal fluorescence microscopy analysis; assay type: functional, cell-based
SK-OV-3 [25] = assay: Induction of apoptosis in human SK-OV-3 cells assessed as viable cells at 1 uM incubated for 24 hrs by Annexin V and PI staining based flow cytometry analysis (reference value: 99.8 %); assay type: functional; settings: read-out: Activity
SK-OV-3 [26] = assay: Induction of autophagy in human SK-OV-3 cells assessed as appearance of autophagic vacuoles incubated for 24 hrs by transmission electron microscopy analysis; assay type: functional, cell-based
[27] = Induction of NO release in phosphate buffer at 2 hrs by Griess reagent based spectrophotometer analysis; assay type: functional
SK-OV-3 [28] = assay: Induction of apoptosis in human SK-OV-3 cells assessed as late apoptotic cells at 1 uM incubated for 24 hrs by Annexin V and PI staining based flow cytometry analysis (reference value: 0 %); assay type: functional
[29] = Toxicity in BALB/c mouse xenografted with human SK-OV-3 cells assessed as change in body weight at 30 mg/kg, ip administered for 19 days; assay type: organism-based; settings: in vivo, 456 h, time 19 day
[30] = Induction of NO release in phosphate buffer at 1 hr by Griess reagent based spectrophotometer analysis; assay type: functional
[31] = Induction of NO release in phosphate buffer at 3 hrs by Griess reagent based spectrophotometer analysis; assay type: functional
[32] = molecular target: T2, Bromodomain-containing protein 4; assay: Inhibition of BRD4 bromodomain 2 (unknown origin) by Alphascreen based method
[33] = Induction of NO release in phosphate buffer at 4 hrs by Griess reagent based spectrophotometer analysis; assay type: functional
[34] = Induction of NO release in phosphate buffer at 0.5 hrs by Griess reagent based spectrophotometer analysis; assay type: functional
[35] = molecular target: T2, Bromodomain-containing protein 4; assay: Inhibition of BRD4 (unknown origin)
SK-OV-3 [36] = assay: Induction of autophagy in human SK-OV-3 cells assessed as increase in autophagosomes at 2 umol/L incubated for 24 hrs by immunofluorescence analysis; assay type: functional, cell-based; settings: dose 2.0 µmol/L
SK-OV-3 [37] = assay: Induction of apoptosis in human SK-OV-3 cells assessed as viable cells at 2 uM incubated for 24 hrs by Annexin V and PI staining based flow cytometry analysis (reference value: 99.8 %); assay type: functional; settings: read-out: Activity
[38] = molecular target: T1, Bromodomain-containing protein 2; assay: Inhibition of BRD2 bromodomain 2 (unknown origin) by Alphascreen based method
OVCAR-3 = assay: Antiproliferative activity against human OVCAR-3 cells assessed as reduction in cell viability incubated for 24 hrs by CCK8 assay; assay type: functional, cell-based; settings: OVCAR-3, 24 h
SK-OV-3 [39] = assay: Antitumor activity against human SK-OV-3 cells xenografted in BALB/c nude mouse assessed as reduction in Ki-67 expression at 30 mg/kg, ip administered for 19 days by immunohistochemical analysis; assay type: functional, organism-based; settings: time 19.0 day
SK-OV-3 [40] = assay: Induction of apoptosis in human SK-OV-3 cells assessed as upregulation of cleaved caspase 3 protein expression at 1 to 2 uM incubated for 24 hrs by Western blotting analysis; assay type: functional, cell-based; settings: dose 1-2 µM
[41] = molecular target: T2, Bromodomain-containing protein 4; assay: Binding affinity to BRD4 BD2 (unknown origin) by thermal denaturation assay
[42] = Induction of NO release in phosphate buffer at 6 hrs by Griess reagent based spectrophotometer analysis; assay type: functional
[43] = Induction of NO release in phosphate buffer at 24 hrs by Griess reagent based spectrophotometer analysis; assay type: functional
SK-OV-3 [44] = assay: Induction of apoptosis in human SK-OV-3 cells assessed as downregulation of Bcl-2 protein expression at 1 to 2 uM incubated for 24 hrs by Western blotting analysis; assay type: functional, cell-based; settings: dose 1-2 µM
SK-OV-3 [45] = assay: Antitumor activity against human SK-OV-3 cells xenografted in BALB/c nude mouse assessed as increase in tumor cell apoptosis at 30 mg/kg, ip administered for 19 days by TUNEL staining based analysis; assay type: functional, organism-based; settings: time 19.0 day
SK-OV-3 [46] = assay: Induction of autophagy in human SK-OV-3 cells assessed as GFP-LC3 aggregation incubated for 24 hrs by confocal fluorescence microscopy analysis; assay type: functional, cell-based
SK-OV-3 [47] = assay: Induction of apoptosis in human SK-OV-3 cells assessed as upregulation of LC3II/I protein expression at 1 to 2 uM incubated for 24 hrs by Western blotting analysis; assay type: functional, cell-based; settings: dose 1-2 µM

Q: For `Cc1cc(-c2nc3sc4c(c3c(=O)[nH]2)CCN(C)C4)cc(C)c1OCC(=O)OCc1c(-c2ccccc2)no[n+]1[O-]`, which Activity (SK-OV-3 [1]) is on record?
A: Active

Q: What about the Activity (SK-OV-3 [2]) of the same molecule?
A: 1.03%

Q: What about the IC50 (ES-2) of the same molecule?
A: 3.44 µM

Q: And the IC50 [3]?
A: > 20 µM

Q: What about the Activity (SK-OV-3 [4]) of the same molecule?
A: Active

Q: What about the Activity (SK-OV-3 [5]) of the same molecule?
A: Active

Q: What about the IC50 [6] of the same molecule?
A: 15.9 µM

Q: And the Kd [7]?
A: 7.43 µM

Q: What about the Activity (SK-OV-3 [8]) of the same molecule?
A: 5.21%

Q: What about the Activity (SK-OV-3 [9]) of the same molecule?
A: Active

Q: And the Activity (SK-OV-3 [10])?
A: Active

Q: And the Activity (SK-OV-3 [11])?
A: 6.15%

Q: What about the Activity (SK-OV-3 [12]) of the same molecule?
A: 8.84%

Q: What about the Activity (SK-OV-3 [13]) of the same molecule?
A: Active

Q: What about the IC50 (A2780) of the same molecule?
A: 3.44 µM

Q: What about the Activity (SK-OV-3 [14]) of the same molecule?
A: 1.2%

Q: And the Kd [15]?
A: 0.419 µM

Q: What about the IC50 [16] of the same molecule?
A: > 20 µM

Q: And the inhibition [17]?
A: Active

Q: And the Kd [18]?
A: 17.5 µM

Q: And the inhibition (Mus musculus)?
A: Active

Q: And the IC50 [19]?
A: > 20 µM

Q: And the inhibition [20]?
A: Active

Q: And the IC50 [21]?
A: 0.82 µM

Q: And the IC50 (SW626)?
A: 8.47 µM

Q: And the IC50 (SK-OV-3 [22])?
A: 1.38 µM

Q: What about the Activity (SK-OV-3 [23]) of the same molecule?
A: Active

Q: And the Activity (SK-OV-3 [24])?
A: Active

Q: What about the viability at 1 µM (SK-OV-3 [25]) of the same molecule?
A: 88.9%

Q: And the Activity (SK-OV-3 [26])?
A: Active

Q: And the Activity [27]?
A: 0.054 µmol/L

Q: And the Activity (SK-OV-3 [28])?
A: 4.5%

Q: What about the Activity [29] of the same molecule?
A: Non-Toxic

Q: And the Activity [30]?
A: 0.055 µmol/L

Q: And the Activity [31]?
A: 0.072 µmol/L

Q: What about the IC50 [32] of the same molecule?
A: 1.94 µM

Q: What about the Activity [33] of the same molecule?
A: 0.095 µmol/L

Q: And the Activity [34]?
A: 0.061 µmol/L

Q: And the IC50 [35]?
A: 0.82 µM

Q: What about the Activity (SK-OV-3 [36]) of the same molecule?
A: Active

Q: What about the viability at 2 µM (SK-OV-3 [37]) of the same molecule?
A: 85.1%

Q: What about the IC50 [38] of the same molecule?
A: > 20 µM

Q: What about the IC50 (OVCAR-3) of the same molecule?
A: 2.69 µM

Q: What about the Activity (SK-OV-3 [39]) of the same molecule?
A: Active

Q: And the Activity (SK-OV-3 [40])?
A: Active

Q: What about the Kd [41] of the same molecule?
A: 0.686 µM

Q: And the Activity [42]?
A: 0.111 µmol/L

Q: What about the Activity [43] of the same molecule?
A: 0.258 µmol/L

Q: What about the Activity (SK-OV-3 [44]) of the same molecule?
A: Active

Q: And the Activity (SK-OV-3 [45])?
A: Active

Q: And the Activity (SK-OV-3 [46])?
A: Active

Q: And the Activity (SK-OV-3 [47])?
A: Active

— ChEMBL document CHEMBL5325395, “Design, synthesis and anti-ovarian cancer activities of thieno[2,3-d]pyrimidine based chimeric BRD4 inhibitor/nitric oxide-donator” (Eur J Med Chem, 2023)
